Experimental data: ChEMBL document CHEMBL1201862, “PubChem BioAssay data set” (2004)
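Cells were grown in 96-well plates and exposed to each compound for 48 hours at five concentrations; endpoints were interpolated linearly between bracketing concentrations, or set to the highest concentration if not reached. Here, GI50 denotes the concentration required for 50% inhibition of growth.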 Activity calls are given as the source filed them. Rule as the data show it: active = GI50 up to about 1.1 µM and inactive = higher.

Experiments:
Experiment in all cases: DTP human tumour cell line panel, 48 h
EKVX = tested on: EKVX
NCI-H522 = tested on: NCI-H522
MOLT-4 = tested on: MOLT-4
SR = tested on: SR
DMS-114 = tested on: DMS-114
CCRF-CEM = tested on: CCRF-CEM
SF-295 = tested on: SF-295
KM-20L2 = tested on: KM-20L2
LXFL 529 = tested on: LXFL 529
NCI-H460 = tested on: NCI-H460
HCT-116 = tested on: HCT-116
OVCAR-5 = tested on: OVCAR-5
SK-OV-3 = tested on: SK-OV-3
UACC-257 = tested on: UACC-257
HOP-92 = tested on: HOP-92
DU-145 = tested on: DU-145
BT-549 = tested on: BT-549
NCI/ADR-RES = tested on: NCI/ADR-RES
MCF7 = tested on: MCF7
MDA-N = tested on: MDA-N

Measured: GI50

O=C(CC(=O)c1ccccc1)CC(O)(c1ccccc1)c1ccccc1
inactive: EKVX 6.1 µM | NCI-H522 3.12 µM | MOLT-4 1.88 µM | SR 2.88 µM | DMS-114 2.06 µM | CCRF-CEM 3.37 µM | SF-295 4.42 µM | KM-20L2 5.25 µM | LXFL 529 3.24 µM | NCI-H460 2.33 µM | HCT-116 4.59 µM | OVCAR-5 11.3 µM | SK-OV-3 9.31 µM | UACC-257 13.2 µM | HOP-92 5.21 µM

CC(C)Cc1cccc(C(C)C)c1NC(=O)CCC(=O)N/N=C1\C(=N/NC(=O)CCC(=O)Nc2c(C(C)C)cccc2C(C)C)C(c2ccc3c(c2)OCO3)Oc2ccccc21 (stereo not drawn)
inactive: EKVX 9.64 µM | NCI-H522 19.5 µM | MOLT-4 57.3 µM | SR 55.7 µM | DMS-114 42.6 µM | CCRF-CEM 28.8 µM | SF-295 48 µM | KM-20L2 > 100 µM | LXFL 529 43.6 µM | NCI-H460 27.9 µM | HCT-116 61.2 µM | OVCAR-5 > 100 µM | SK-OV-3 > 100 µM | UACC-257 > 100 µM | HOP-92 > 100 µM

CC#N.O[C@@H]1CCCC[C@@H]1O.O[C@@H]1CCCC[C@@H]1O.[TeH2]
inactive: EKVX > 100 µM | NCI-H522 37.3 µM | MOLT-4 13.8 µM | SR 21.1 µM | DMS-114 24.4 µM | CCRF-CEM 11.6 µM | SF-295 17.3 µM | KM-20L2 65.5 µM | LXFL 529 63.7 µM | NCI-H460 3.72 µM | HCT-116 15.4 µM | OVCAR-5 16.3 µM | SK-OV-3 77.8 µM | UACC-257 54.3 µM | HOP-92 26.1 µM

CCCCCCCSCC1OC(n2cnc3c(N)ncnc32)C(O)C1O (stereo not drawn)
inactive: EKVX 20.5 µM | MOLT-4 19.1 µM | SR 10 µM | DMS-114 18 µM | CCRF-CEM 39.4 µM | SF-295 18.7 µM | KM-20L2 > 100 µM | LXFL 529 12.3 µM | NCI-H460 16.5 µM | HCT-116 3.59 µM | OVCAR-5 > 100 µM | UACC-257 18.3 µM | HOP-92 6.43 µM

CN(C)CC1(Cc2ccccc2)CC/C(=C\c2ccccc2)C1=O (stereo not drawn)
inactive: NCI-H522 15.2 µM | MOLT-4 24 µM | SR 34 µM | DMS-114 31.3 µM | CCRF-CEM 27 µM | SF-295 62.2 µM | KM-20L2 17.2 µM | LXFL 529 37.2 µM | NCI-H460 28.2 µM | HCT-116 29.1 µM | OVCAR-5 40.6 µM | UACC-257 32.4 µM | HOP-92 51.4 µM

CC(=O)OCCOCNC(=S)N/N=C(\C)c1cnc2ccccc2n1
inactive: EKVX 8.53 µM | NCI-H522 21.9 µM | MOLT-4 28.6 µM | SR > 100 µM | DMS-114 15.6 µM | CCRF-CEM 7.46 µM | SF-295 57.9 µM | KM-20L2 16.3 µM | LXFL 529 30.8 µM | NCI-H460 27 µM | HCT-116 25.4 µM | OVCAR-5 7.91 µM | SK-OV-3 33.3 µM | UACC-257 48.4 µM

C/N=c1\ss/c(=N\C(=S)N(C)C)n1-c1ccccc1
inactive: EKVX > 100 µM | NCI-H522 9.14 µM | MOLT-4 > 100 µM | SR > 100 µM | DMS-114 > 67.8 µM | CCRF-CEM > 100 µM | SF-295 > 75.5 µM | KM-20L2 > 100 µM | LXFL 529 > 100 µM | NCI-H460 > 100 µM | HCT-116 > 72.8 µM | OVCAR-5 > 100 µM | SK-OV-3 > 100 µM | UACC-257 > 100 µM | HOP-92 39.5 µM

COC1(Cc2ccccc2)C(=O)c2ccccc2N1C(C)=O (stereo not drawn)
inactive: EKVX > 100 µM | MOLT-4 > 100 µM | SR > 100 µM | DMS-114 > 100 µM | CCRF-CEM > 100 µM | SF-295 > 100 µM | KM-20L2 > 100 µM | LXFL 529 > 100 µM | NCI-H460 > 100 µM | HCT-116 > 100 µM | SK-OV-3 > 100 µM | UACC-257 > 100 µM | HOP-92 > 100 µM

Sc1nc(S)nc(Oc2ccc(Cl)c(Cl)c2)n1
inactive: EKVX 42.1 µM | NCI-H522 18.5 µM | MOLT-4 18.1 µM | SR 30.1 µM | DMS-114 19.1 µM | CCRF-CEM 23.2 µM | SF-295 59 µM | KM-20L2 33.6 µM | LXFL 529 34.9 µM | DU-145 57.9 µM | BT-549 57.8 µM | NCI-H460 25.5 µM | HCT-116 30.6 µM | NCI/ADR-RES 38 µM | OVCAR-5 59.2 µM | SK-OV-3 > 51.5 µM | MCF7 50.6 µM | MDA-N 77.1 µM | UACC-257 43.7 µM | HOP-92 19.2 µM

CCOC(=O)/C=C/n1c2ccccc2c(=O)c2cc(OC)ccc21
inactive: EKVX > 100 µM | NCI-H522 54.2 µM | MOLT-4 > 100 µM | SR 28.2 µM | DMS-114 65.2 µM | CCRF-CEM 50.8 µM | SF-295 > 100 µM | KM-20L2 > 100 µM | LXFL 529 > 100 µM | NCI-H460 > 100 µM | HCT-116 90.6 µM | OVCAR-5 > 100 µM | SK-OV-3 > 100 µM | UACC-257 > 100 µM | HOP-92 57.9 µM

C/C(=N\NC(=S)Nc1ccc([N+](=O)[O-])cc1S(=O)(=O)O)c1ccccn1
inactive: EKVX 37.9 µM | MOLT-4 40.1 µM | SR 32.6 µM | DMS-114 39.7 µM | CCRF-CEM 39.9 µM | SF-295 > 100 µM | KM-20L2 26.3 µM | LXFL 529 61 µM | NCI-H460 25.7 µM | HCT-116 28.4 µM | OVCAR-5 39.9 µM | UACC-257 > 100 µM | HOP-92 41.9 µM

COC(=O)[C@H](Cc1ccccc1)NC(=O)/C(=C/C(C)C)NC(=O)[C@H](CCSC)NC=O
inactive: EKVX > 100 µM | NCI-H522 > 100 µM | MOLT-4 > 100 µM | SR > 100 µM | DMS-114 > 100 µM | CCRF-CEM > 100 µM | SF-295 > 100 µM | KM-20L2 > 100 µM | LXFL 529 > 100 µM | NCI-H460 > 100 µM | HCT-116 > 100 µM | SK-OV-3 > 100 µM | UACC-257 > 100 µM | HOP-92 > 100 µM

CC(=O)C(CN(C)C)C(c1ccccc1)c1c(O)c2ccccc2oc1=O (stereo not drawn)
inactive: EKVX > 100 µM | NCI-H522 > 100 µM | MOLT-4 > 100 µM | SR > 100 µM | DMS-114 93.3 µM | CCRF-CEM > 100 µM | SF-295 > 100 µM | KM-20L2 > 100 µM | LXFL 529 > 100 µM | NCI-H460 > 100 µM | HCT-116 > 100 µM | OVCAR-5 > 100 µM | SK-OV-3 > 100 µM | UACC-257 > 100 µM | HOP-92 49.9 µM

COC(=O)C1=C(OC)c2cc3c(cc2C(c2cc(OC)c(OC)c(OC)c2)C1C(=O)OC)OCO3 (stereo not drawn)
inactive: EKVX > 100 µM | MOLT-4 30.5 µM | SR 96.4 µM | DMS-114 > 100 µM | CCRF-CEM > 100 µM | SF-295 59.7 µM | KM-20L2 > 100 µM | LXFL 529 > 100 µM | NCI-H460 > 100 µM | HCT-116 > 100 µM | OVCAR-5 > 100 µM | SK-OV-3 > 100 µM | UACC-257 > 100 µM | HOP-92 48.9 µM

O=C(O)C(Cl)(Cl)Cl
inactive: EKVX > 100 µM | MOLT-4 > 100 µM | SR > 100 µM | DMS-114 > 100 µM | CCRF-CEM > 100 µM | SF-295 > 100 µM | KM-20L2 > 100 µM | LXFL 529 > 100 µM | NCI-H460 > 100 µM | HCT-116 > 100 µM | OVCAR-5 > 100 µM | SK-OV-3 > 100 µM | UACC-257 > 100 µM | HOP-92 > 100 µM
